Measured values as given in US11219650B2, “Agent for preventing or treating small intestinal injury induced by specific NSAID and PPI” (priority 2018, dated 2022).

Key:
small intestinal injury [1] = settings: Non-Patent Literature 1 (Wallace et al., Gastroenterology 2011); cited from earlier work
small intestinal injury [2] = settings: rat, in vivo
Procedure: (§1) The animals were allowed to free access to a solid diet (CE-2, CLEA Japan, Inc.) and tap water.
(§2) At the start of the experiments, the blood was collected from the tail vein with hematocrit capillary tubes (Thermo Fisher Scientific K.K.) to measure hematocrit values. […] After grouping, the body weight of the animals was measured for nine days, and one of the PPIs (10 mg/kg) was intraperitoneally administered twice a day. For the normal group and the NSAID alone administration groups, vehicle was administered instead of the PPIs. From day 6 of PPI administration, one of the NSAIDs (10 mg/kg) was administered by oral gavage twice a day. For the normal group, vehicle was administered instead of the NSAIDs. For the bifidobacteria administration groups, one strain of the bacteria (1×10^9 cfu (colony forming unit)/animal) was further administered by oral gavage once a day. For the other groups, physiological saline was administered instead of the bifidobacteria. On the final day of the experiments, the hematocrit values were measured again, and the difference between the start and the end of the experiments was calculated and expressed as the rate of change of the hematocrit values. In aspirin administration experiments, the animals were fed with a high-fructose diet (EPS EKISHIN Co., Ltd) from the starting day of PPI administration.
(§3) Bifidobacteria administration was not performed. […]

small intestinal injury [3] = assay: Comparative Example 1: degree of small intestinal injury induction by sulindac and omeprazole, rate of change of hematocrit values; settings: rats; sulindac as NSAID + omeprazole as PPI; no bifidobacteria; FIG. 10
Procedure: as §1, §2, §3

[4] = test system: small intestinal injury induced by NSAID and PPI; assay: Test 1: inhibitory effects on NSAID and PPI induced small intestinal injury, rate of change of hematocrit values; format: in vivo, Wister male rats; settings: rats, bacteria 1×10^9 cfu/animal oral once a day
Procedure: Frozen stocks of the following bacterial strains were statically cultured in GAM broth at 37° C. for 24 hours: the Bifidobacterium bifidum G9-1 strain (B. bifidum G9-1) (Accession No. NITE BP-817), the Bifidobacterium longum reference strain JCM (registered trademark) 1217^T (B. longum JCM 1217) (purchased from Japan Collection of Microorganisms (JCM), RIKEN BioResource Research Center), and the Bifidobacterium infantis reference strain JCM 1222T (B. infantis JCM 1222) (purchased from JCM). Each of the bacterial liquid cultures was inoculated into fresh GAM broth at a ratio (by volume) of liquid culture to GAM broth of 1:100, and statically cultured at 37° C. for 24 hours. […]
Small intestinal injury was induced by a combination of (S)-(+)-2-(6-methoxy-2-naphthyl)propionic acid (naproxen, Tokyo Chemical Industry Co., Ltd., dissolved in a 5% NaHCO3 solution; also called NAP) and omeprazole (omz) or by a combination of ibuprofen (Ibu) and omeprazole (omz). […] That is, the effect of B. bifidum on recovery from small intestinal injury induced by ibuprofen and omeprazole when compared with the effect of B. bifidum on recovery from small intestinal injury induced by naproxen and omeprazole was calculated by the following formula, taking the latter effect as 1.

## COc1ccc2cc([C@H](C)C(=O)O)ccc2c1 [Naproxen, (S)-(+)-2-(6-methoxy-2-naphthyl)propionic acid]
Small intestinal injury [1]
  induction of small intestinal injury by naproxen in combination with omeprazole: induce small intestinal injury

## CC1=C(CC(=O)O)c2cc(F)ccc2/C1=C\c1ccc([S+](C)[O-])cc1 (centres unmarked) [sulindac]
Small intestinal injury [2]
  induction of small intestinal injury by combination of sulindac and omeprazole: does not induce small intestinal injury
Small intestinal injury [3]
  reduction of the hematocrit values induced by sulindac in combination with omeprazole: did not induce reduction of the hematocrit values

## Bifidobacterium longum
[4]; ibuprofen 10 mg/kg oral + lansoprazole 10 mg/kg i.p. twice a day, FIG. 7
  inhibitory effect on small intestinal injury (hematocrit reduction) induced by ibuprofen and lansoprazole: higher inhibitory effect
[4]; ibuprofen 10 mg/kg oral + omeprazole 10 mg/kg i.p. twice a day, FIG. 4
  inhibitory effect on small intestinal injury (hematocrit reduction) induced by ibuprofen and omeprazole: higher inhibitory effect
